In patent publication US20250084056A1, “SUBSTITUTED OXOISOINDOLINYL PIPERIDINE-2,6-DIONE COMPOUNDS” (BRISTOL-MYERS SQUIBB COMPANY, priority 2023, published 2025):

Key:
[1] = target: Cyclin E1 (Homo sapiens, UniProt P24864+Q96SW2); assay: Cyclin E1 Cellular Degradation Assay (MSD); format: cell-based; set-up: endogenous in cells; host or cells: OVCAR3
Procedure, shortened: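 Cyclin E1 remaining after 24 h compound exposure of OVCAR3 cells was quantified in lysates by electrochemiluminescent MSD sandwich assay. DC50 (50% response concentration) and Dmax (maximum response) were calculated, with 110% response set by a reference compound at […].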

[2] = target: GSPT1 (Homo sapiens, UniProt P15170+Q96SW2); assay: Degradation of GSPT1 (Western blot) in HCC1569 cells; format: cell-based; set-up: endogenous in cells; host or cells: HCC1569 (ATCC CRL-2330); conditions: HCC1569 cancer cells, 24 h, up to a concentration of 10 μM, FIG. 1C
Sequence of GSPT1 (P15170 whole entry): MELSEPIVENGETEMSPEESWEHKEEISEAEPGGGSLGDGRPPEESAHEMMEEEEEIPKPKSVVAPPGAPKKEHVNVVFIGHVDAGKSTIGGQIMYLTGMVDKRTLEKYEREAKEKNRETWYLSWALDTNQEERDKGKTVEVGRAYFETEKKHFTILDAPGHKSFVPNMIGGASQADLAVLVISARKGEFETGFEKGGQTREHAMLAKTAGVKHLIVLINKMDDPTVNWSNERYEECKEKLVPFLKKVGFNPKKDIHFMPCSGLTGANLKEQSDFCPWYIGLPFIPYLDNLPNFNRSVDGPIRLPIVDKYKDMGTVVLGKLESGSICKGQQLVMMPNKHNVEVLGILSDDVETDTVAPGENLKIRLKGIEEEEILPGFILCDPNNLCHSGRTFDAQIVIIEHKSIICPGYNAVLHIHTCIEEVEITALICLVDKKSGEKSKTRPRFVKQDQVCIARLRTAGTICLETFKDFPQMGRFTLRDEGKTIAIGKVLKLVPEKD
Sequence of GSPT1 (Q96SW2 whole entry): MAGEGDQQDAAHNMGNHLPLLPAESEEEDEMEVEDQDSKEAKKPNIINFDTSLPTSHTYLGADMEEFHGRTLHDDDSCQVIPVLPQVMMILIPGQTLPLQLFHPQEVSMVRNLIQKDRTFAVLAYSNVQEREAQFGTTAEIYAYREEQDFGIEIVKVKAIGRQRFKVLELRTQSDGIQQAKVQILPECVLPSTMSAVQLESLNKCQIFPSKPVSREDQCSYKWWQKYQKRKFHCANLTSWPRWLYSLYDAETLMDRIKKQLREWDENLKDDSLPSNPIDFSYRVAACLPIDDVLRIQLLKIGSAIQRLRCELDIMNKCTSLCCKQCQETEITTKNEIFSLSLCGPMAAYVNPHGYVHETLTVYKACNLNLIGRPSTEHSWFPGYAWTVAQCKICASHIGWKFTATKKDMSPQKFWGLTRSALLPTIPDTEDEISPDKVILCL
Sequence of GSPT1 (Q16531 whole entry partner): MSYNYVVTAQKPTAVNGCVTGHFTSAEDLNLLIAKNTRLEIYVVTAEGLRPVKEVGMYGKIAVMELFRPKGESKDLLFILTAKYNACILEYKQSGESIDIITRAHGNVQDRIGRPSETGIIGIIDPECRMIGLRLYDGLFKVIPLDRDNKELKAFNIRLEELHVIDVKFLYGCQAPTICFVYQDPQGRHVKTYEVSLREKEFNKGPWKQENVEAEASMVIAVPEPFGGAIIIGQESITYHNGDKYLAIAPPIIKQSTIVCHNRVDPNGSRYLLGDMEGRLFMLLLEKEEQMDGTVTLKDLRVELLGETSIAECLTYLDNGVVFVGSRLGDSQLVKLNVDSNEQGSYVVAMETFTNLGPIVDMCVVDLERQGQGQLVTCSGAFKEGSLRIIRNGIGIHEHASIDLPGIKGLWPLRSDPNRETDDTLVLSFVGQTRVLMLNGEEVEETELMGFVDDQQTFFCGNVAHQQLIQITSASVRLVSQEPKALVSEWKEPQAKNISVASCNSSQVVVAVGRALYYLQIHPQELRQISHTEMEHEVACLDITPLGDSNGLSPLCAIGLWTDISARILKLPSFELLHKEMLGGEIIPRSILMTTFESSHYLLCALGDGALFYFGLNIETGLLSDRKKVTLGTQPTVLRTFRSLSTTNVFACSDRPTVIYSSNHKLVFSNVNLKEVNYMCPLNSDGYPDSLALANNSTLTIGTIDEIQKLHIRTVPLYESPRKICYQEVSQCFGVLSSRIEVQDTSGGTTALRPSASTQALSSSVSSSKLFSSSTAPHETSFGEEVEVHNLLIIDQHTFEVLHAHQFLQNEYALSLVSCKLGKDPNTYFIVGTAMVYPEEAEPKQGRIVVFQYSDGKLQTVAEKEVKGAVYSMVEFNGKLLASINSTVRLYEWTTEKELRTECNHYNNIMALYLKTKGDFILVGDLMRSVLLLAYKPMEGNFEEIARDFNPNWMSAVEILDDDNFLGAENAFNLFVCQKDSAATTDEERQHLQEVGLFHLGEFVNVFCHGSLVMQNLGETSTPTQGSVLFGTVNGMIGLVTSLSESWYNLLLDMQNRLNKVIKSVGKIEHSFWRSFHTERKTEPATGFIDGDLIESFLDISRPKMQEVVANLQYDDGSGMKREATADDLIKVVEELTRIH
Description: The assay measured the ability of the compound to degrade Cyclin E1, inhibit RB phosphorylation, and to determine the selectivity against degradation of GSPT1 in cancer cells in vitro. HCC1569 cells (ATCC #CRL-2330) were cultured in RPMI media (Gibco, catalog A104910) supplemented with 10% FBS (Gibco, catalog 10091148). Cells were plated in tissue culture-treated 6 well plates at a density of 0.5 million cells per well in 2 mL media. The cells were then incubated overnight in a cell culture incubator (5% CO2 and 37° C.) and allowed to attach to the plate. The following day cells were dosed with compounds at the desired concentrations. Compounds were first resuspended in DMSO to make 10 mM stock, and 20 μM stock was prepared by diluting 10 mM stock in culture media. […] Total protein concentration was measured using a BCA assay kit (Thermo Scientific, cat #P123227). […] Protein was then detected by incubating blots with 2 mL of HRP detection reagent (Thermo scientific cat #A38556) for one minute at room temperature. Excess reagent was drained and gently removed on a Kimwipe and the chemiluminescence signal was detected using Fluorchem imaging system. […] Relative quantification of western blots was performed using ImageJ software, data was then normalized to loading control (β-Actin) first and then to the DMSO-treated sample. […]

Sequence of Cyclin E1 (P24864 whole entry): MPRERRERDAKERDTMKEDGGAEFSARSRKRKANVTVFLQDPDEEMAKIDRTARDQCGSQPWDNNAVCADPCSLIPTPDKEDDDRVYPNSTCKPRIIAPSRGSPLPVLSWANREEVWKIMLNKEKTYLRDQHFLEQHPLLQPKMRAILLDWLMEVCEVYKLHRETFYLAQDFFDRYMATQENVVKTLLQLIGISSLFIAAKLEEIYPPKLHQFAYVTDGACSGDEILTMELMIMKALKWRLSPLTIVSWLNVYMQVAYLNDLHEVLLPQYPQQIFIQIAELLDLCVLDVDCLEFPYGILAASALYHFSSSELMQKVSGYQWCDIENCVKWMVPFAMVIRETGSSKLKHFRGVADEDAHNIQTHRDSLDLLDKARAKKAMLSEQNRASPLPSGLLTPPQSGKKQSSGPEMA
Sequence of Cyclin E1 (Q96SW2 whole entry): as the sequence (Q96SW2 whole entry) above
Sequence of Cyclin E1 (Q16531 whole entry partner): as the sequence (Q16531 whole entry partner) above

## COc1c(COC(=O)Nc2ccc(Oc3ccc(F)c(F)c3)cc2)ccc2c1C(=O)N([C@H]1CCC(=O)NC1=O)C2 (single isomer, unassigned) [Example 35, {2-[(3 S)-2,6-dioxopiperidin-3-yl]-4-methoxy-3-oxo-2,3-dihydro-1H-isoindol-5-yl}methyl N-[4-(3,4-difluorophenoxy)phenyl]carbamate]
[1]; Cyclin E1 cellular degradation
  DC50: 159 nM
[1]; Cyclin E1 cellular degradation, maximum degradation
  Dmax: 107%
[1]; selectivity for degradation of Cyclin E1 over GSPT1
  Ratio of GSPT1 DC50/Cyclin E1 DC50: >88
[2]
  degradation of GSPT1 protein: did not significantly degrade GSPT1 protein
